Laboratory results taken from article PMC8697972, “New Auranofin Analogs with Antibacterial Properties against Burkholderia Clinical Isolates” (Antibiotics, 2021).
Marks after values point to notes of the source that are not given here.

Columns and labels:
[1] = test system: Staphylococcus aureus ATCC 27700; assay: MBC (minimum bactericidal concentration)
[2] = test system: Stenotrophomonas maltophilia K279a; assay: MBC (minimum bactericidal concentration); type: cell-based
B. cenocepacia K56-2 [3] = assay: Persister frequency assay; conditions: 24 h
B. cenocepacia K56-2 [4] = assay: MIC in 50% human serum; type: cell-based, Burkholderia cenocepacia
[5] = test system: B. mallei Ivan (NCTC 10230); type: cell-based, Burkholderia mallei
[6] = test system: Burkholderia cenocepacia K56-2; assay: Time kill assays (exponential and stationary phase); conditions: time kill, 1×, 2×, 6 h
B. pseudomallei MSHR465a = type: cell-based, Burkholderia pseudomallei
[7] = test system: Stenotrophomonas maltophilia DH57; type: cell-based
B. cenocepacia K56-2 [8] = assay: In vivo antibiotic activity in infected C. elegans; conditions: C. elegans infected with B. cenocepacia K56-2, data not shown
[9] = test system: Staphylococcus aureus 107094; type: cell-based
[10] = test system: Galleria mellonella larvae; assay: Galleria toxicity
[11] = test system: Stenotrophomonas maltophilia K279a; type: cell-based
B. dolosa CEP021 = type: cell-based, Burkholderia dolosa; conditions: B. dolosa CEP021
B. contaminans MF16 = type: cell-based, Burkholderia contaminans; conditions: B. contaminans MF16
[12] = test system: B. contaminans FFH-2050MA; type: cell-based, Burkholderia contaminans; conditions: B. contaminans FFH-2050MA
[13] = test system: Acinetobacter baumannii ATCC 17978; type: cell-based
Escherichia coli 120955 [14] = assay: MBC (minimum bactericidal concentration)
human A549 cells = conditions: cited from earlier work
B. lata BCC6 = type: cell-based, Burkholderia lata; conditions: B. lata BCC6
[15] = test system: B. mallei China 7 (NBL 7); type: cell-based, Burkholderia mallei
[16] = test system: B. pseudomallei HBPUB10134a; type: cell-based, Burkholderia pseudomallei
[17] = test system: Achromobacter xylosoxidans ACH03; assay: MBC (minimum bactericidal concentration)
B. cenocepacia 140485 = type: cell-based, Burkholderia cenocepacia; conditions: B. cenocepacia 140485
[18] = test system: B. mallei China 5 (NBL 4); type: cell-based, Burkholderia mallei
[19] = test system: Staphylococcus aureus 107094; assay: MBC (minimum bactericidal concentration)
[20] = test system: B. cenocepacia K56-2 persister cells; assay: Time kill of persister cells generated with ciprofloxacin; type: cell-based, Burkholderia cenocepacia
B. multivorans ATCC17616 = type: cell-based, Burkholderia multivorans; conditions: B. multivorans ATCC17616
B. pseudomallei MSHR305 = type: cell-based, Burkholderia pseudomallei
B. pseudomallei 1710b = type: cell-based, Burkholderia pseudomallei
B. ubonensis LMG 20358 = type: cell-based, Burkholderia ubonensis; conditions: B. ubonensis LMG 20358
B. cenocepacia K56-2 [21] = assay: In vivo antibiotic activity in infected G. mellonella; conditions: G. mellonella infected with B. cenocepacia K56-2, data not shown
B. contaminans FFH-4004 = type: cell-based, Burkholderia contaminans; conditions: B. contaminans FFH-4004
[22] = test system: Escherichia vulneris CEP511; type: cell-based
[23] = test system: Klebsiella pneumoniae 120310; type: cell-based
[24] = test system: Stenotrophomonas maltophilia DH57; assay: MBC (minimum bactericidal concentration)
Escherichia coli 120955 [25] = type: cell-based
[26] = test system: Staphylococcus aureus ATCC 27700; type: cell-based
B. cenocepacia K56-2 [27] = type: cell-based, Burkholderia cenocepacia; conditions: B. cenocepacia K56-2; CAMHB, 18 h, 37 °C
[28] = test system: Acinetobacter baumannii ATCC 17978; assay: MBC (minimum bactericidal concentration)
[29] = test system: Achromobacter xylosoxidans ACH03; type: cell-based
[30] = test system: Burkholderia cenocepacia K56-2; assay: MBC (minimum bactericidal concentration); type: cell-based; conditions: MBC determined from exponential time kill curve
[31] = test system: Klebsiella pneumoniae 120310; assay: MBC (minimum bactericidal concentration)
[32] = test system: Escherichia vulneris CEP511; assay: MBC (minimum bactericidal concentration)
B. mallei = type: cell-based, Burkholderia mallei; conditions: range over B. mallei strains
Gram-negative bacteria = test system: Gram-negative bacteria; design: method as in PMID 25831516; conditions: cited from earlier work
B. pseudomallei = type: cell-based, Burkholderia pseudomallei
members of the Bcc = assay: MIC, summary over Bcc panel; type: cell-based, Burkholderia cepacia complex; conditions: text summary over Bcc panel (most of the MICs)

With `C[PH](C)(C)[Au][S]CCO` [MS-40, 2-mercaptoethanolatotrimethylphosphine gold(I)] the MBC [1] was 2 µg/mL, the MBC [2] was 2 µg/mL and the “persister frequency (percent survival)” value (B. cenocepacia K56-2 [3]; 5× MIC) was “No persisters”. The “persister frequency (percent survival)” value (B. cenocepacia K56-2 [3]; 10× MIC) was “No persisters”, the “MIC in the presence of 50% human serum” value (B. cenocepacia K56-2 [4]) was 128 µg/mL and the MIC [5] was 0.12 µg/mL. The “killing of stationary (non-replicating) phase cells” value ([6]; 4× MIC (DOX 4× MIC)) was “bactericidal”, the “killing of exponential (replicating) phase cells” value ([6]; 4× MIC) was “bactericidal” and the MIC (B. pseudomallei MSHR465a) was 4 µg/mL. The MIC [7] was 1 µg/mL, the “in vivo antibiotic activity” value (B. cenocepacia K56-2 [8]) was “did not observe in vivo antibiotic activity” and the MIC [9] was 0.25 µg/mL. The “Galleria Survival” value ([10]; 1.0 mg/kg, 24 h) was 100%, the “Galleria Survival” value ([10]; 1.0 mg/kg, 48 h) was 96.7% and the “Galleria Survival” value ([10]; 1.0 mg/kg, 72 h) was 96.7%. The “Galleria Survival” value ([10]; 2.0 mg/kg, 24 h) was 90.0%, the “Galleria Survival” value ([10]; 2.0 mg/kg, 48 h) was 80.0% and the “Galleria Survival” value ([10]; 2.0 mg/kg, 72 h) was 80.0%. The “Galleria Survival” value ([10]; 5.0 mg/kg, 24 h) was 96.7%, the “Galleria Survival” value ([10]; 5.0 mg/kg, 48 h) was 93.3% and the “Galleria Survival” value ([10]; 5.0 mg/kg, 72 h) was 90.0%. For the same compound, the “percent survival of Galleria larvae” value ([10]; 10 mg/kg) was no less than 80%, the “Galleria Survival” value ([10]; 10.0 mg/kg, 24 h) was 90.0% and the “Galleria Survival” value ([10]; 10.0 mg/kg, 48 h) was 83.3%. For the same compound, the “Galleria Survival” value ([10]; 10.0 mg/kg, 72 h) was 80.0%, the MIC [11] was 2 µg/mL and the MIC (B. dolosa CEP021) was 16 µg/mL. For the same compound, the MIC (B. contaminans MF16) was 8 µg/mL, the MIC [12] was 4 µg/mL and the MIC [13] was 2 µg/mL. The MBC (Escherichia coli 120955 [14]) was 32 µg/mL, the “toxicity in human A549 cells compared with auranofin” value (human A549 cells) was “lower toxicity” and the MIC (B. lata BCC6) was 8 µg/mL. The MIC [15] was 0.25 µg/mL, the MIC [16] was 4 µg/mL and the MBC [17] was 8 µg/mL. For the same compound, the MIC (B. cenocepacia 140485) was 8 µg/mL, the MIC [18] was 0.12 µg/mL and the MBC [19] was 1 µg/mL. For the same compound, the “further reduction of ciprofloxacin-generated persister population” value ([20]; enriched persister population) was 1–2 log10 CFU/mL, the “killing of ciprofloxacin-generated persister cells” value ([20]; in PBS, 3 h, MS-40S/MS-40 2× and 4× MIC, ciprofloxacin 5× MIC) was “killed to a concentration below/close to the limit of detection” and the MIC (B. multivorans ATCC17616) was 8 µg/mL. For the same compound, the MIC (B. pseudomallei MSHR305) was 2 µg/mL, the MIC (B. pseudomallei 1710b) was 4 µg/mL and the MIC (B. ubonensis LMG 20358) was 16 µg/mL. For the same compound, the “in vivo antibiotic activity” value (B. cenocepacia K56-2 [21]) was “did not observe in vivo antibiotic activity”, the MIC (B. contaminans FFH-4004) was 8 µg/mL and the MIC [22] was 2 µg/mL. It also gave an MIC [23] of 2 µg/mL, an MBC [24] of 4 µg/mL and an MIC (Escherichia coli 120955 [25]) of 4 µg/mL. It also gave an MIC [26] of 0.25 µg/mL, an MIC (B. cenocepacia K56-2 [27]) of 4 µg/mL and an MBC [28] of 4 µg/mL. The MIC [29] was 8 µg/mL, the MBC [30] was 8 * μg/mL and the MBC [31] was 4 µg/mL. It also gave an MBC [32] of 2 µg/mL.

With `CC(=O)OC[C@H]1O[C@@H]([S-])[C@H](OC(C)=O)[C@@H](OC(C)=O)[C@@H]1OC(C)=O.CCP(CC)CC.[Au+]` [Auranofin] the MIC [5] was 0.5 µg/mL, the “MICs against B. mallei” value (B. mallei) was 0.25 to 1 µg/mL and the MIC (B. pseudomallei MSHR465a) was 64 µg/mL. The MIC (B. dolosa CEP021) was greater than 128 µg/mL, the MIC (B. contaminans MF16) was 128 µg/mL and the MIC [12] was 128 µg/mL. The “MICs against Gram-negative bacteria” value (Gram-negative bacteria) was greater than 16 mg/L, the “MIC in B. pseudomallei” value (B. pseudomallei) was 64 µg/mL and the MIC (B. lata BCC6) was 128 µg/mL. It also gave an MIC [15] of 1 µg/mL, an MIC [16] of 64 µg/mL and an MIC (B. cenocepacia 140485) of 128 µg/mL. For the same compound, the MIC [18] was 0.25 µg/mL, the MIC (B. multivorans ATCC17616) was 128 µg/mL and the MIC (B. pseudomallei 1710b) was 64 µg/mL. The MIC (B. ubonensis LMG 20358) was greater than 128 µg/mL, the MIC (B. contaminans FFH-4004) was greater than 128 µg/mL and the “MICs against members of the Bcc” value (members of the Bcc) was no less than 128 µg/mL. The MIC (B. cenocepacia K56-2 [27]) was greater than 128 µg/mL.
